Measured values reported in US20210308078A1, “NEW USE OF INHIBITORS OF MONOAMINE OXIDASE TYPE B” (ISTITUTO Di RICERCA PEDiATRiCA CITTA DELLA SPERANZA, priority 2018, published 2021).

Tests used:
caspase-1 = assay: Caspase-1 activation assay (FLICA 660-YVAD-FMK, FACS) in human macrophages; format: cell-based; conditions: LPS/ATP and LPS/nigericin, 8 h; pargyline 100 μM, rasagiline 5 μM, NAC 5 mM
Description: The cells were then marked with fluorescent antibodies anti-MHCII and analysed by FACS. The activity of the inflammasome was expressed as % of the cells that were positive for caspase-1 and for MHCII in relation to the total. The values are the average of at least 3 independent experiments±SEM.
(§1) Human monocytes derived from buffy coats obtained from healthy donors were prepared as described in Cathcart, M. K., and Bhattacharjee, A. (2014). […] For macrophage differentiation, 5×10^6 monocytes, seeded in 24-well plates, were cultivated in RPMI 20% FBS in the presence of 10 ng/ml GM-CSF (Miltenyi Biotec) for 7 days. For inflammasome activation, 2×10^6 cells in 6-well plates were treated for 8 h with 100 ng/m1 of LPS Ultra-pure combined with ATP (1 mM) or nigericine (15 μM, added the last 30 min).
The activation of caspase-1 in human macrophages was monitored by way of flow cytometry analysis. The cells, subjected to various treatments, were incubated at 37° C. for 3 h with FLICA 660-YVAD-FMK and washed according to the manufacturer's instructions (FLICA®660 Caspase-1 Assay Kit; ImmunoChemistry Technologies). […] The analysis was performed using CellQuest software (Becton Dickinson) in cells positive for caspase-1 and MHCII.

IL-1β [1] = assay: IL-1β release in human macrophages (ELISA); format: cell-based; conditions: LPS/ATP and LPS/nigericin, 8 h, pargyline 100 μM, rasagiline 5 μM, NAC 5 mM
Description: FIG. 6. […] The levels of IL-1β in the supernatants were quantified by means of ELISA test. The values are the average of at least 3 independent experiments±SEM.
as §1

MAOA, MAOB = conditions: cited from earlier work
IL-1β [2] = assay: IL-1β release in murine macrophages (ELISA); format: cell-based; conditions: LPS 100 ng/ml + ATP 5 mM, 4 h, pargyline 100 μM, rasagiline 5 μM
Description: FIG. 7. […] The levels of IL-1β in the supernatants were quantified by means of ELISA test.
Murine macrophages isolated from bone marrow were obtained from the tibia and femoral bone as described in Coll, R. C., Robertson, A. A., Chae, J. J., Higgins, S. C., Munoz-Planillo, R., Inserra, M. C., Vetter, I., Dungan, L. S., Monks, B. G., Stutz, A., et al. (2015). A small-molecule inhibitor of the NLRP3 inflammasome for the treatment of inflammatory diseases. Nature medicine 21, 248-255.
[…] ATP (5 mM, added the last 30 min).
The culture media sampled from stimulated and control human and murine macrophages were stored at −80° C. The levels of IL-1β0 were determined by means of commercially available ELISA kits (eBioscience) and were developed using 3,3′,5,5′-tetramethyl benzidine (TMB). The optical densities were measured at 450 nm by means of a microplate reader (Sunrise, Tecan; Switzerland).

MAO = conditions: human macrophages stimulated 8 h with LPS, LPS/ATP or LPS/nig; pargyline 100 μM, rasagiline 5 μM
Description: The intracellular levels of dopamine and norepinephrine (both substrates of MAO) were measured by means of mass spectrometry on cell lysates extracted with methanol:water (70:30). […] The values are the average of at least 3 independent experiments±SEM.
as §1

human macrophages [3] = conditions: stimulation with LPS/ATP and LPS/nigericine, 3 h; rasagiline 5 μM
Description: The images were acquired by means of fluorescence microscopy. The data are expressed as fluorescence intensity and are normalised with respect to unstimulated cells (unst). The values are the average of at least 3 independent experiments±SEM.
as §1
ROS were determined by means of carboxymethyl-dichlorofluorescein (CM-DCFDA). […] After 3 h of stimulation the cells were loaded with CM-DCFDA (2.5 μM) for 30 min. All of the steps were performed at 37° C. with 5% CO2. The cells were washed with PBS and the images were acquired using a Leica DMI6000B microscope (Wetzlar, Germany). The fluorescence was measured at 6-8 random intervals per slide and an average value was recorded. The fluorescence emission was performed using excitation filters of emission 488±20 nm and 645±37 nm. The data were acquired and analysed by means of Metafluor software (Universal Imaging).

human macrophages [4] = conditions: 8 h of stimulation; rasagiline 5 μM pre-treatment
Description: After 8 h of stimulation, the macrophages were loaded with tetramethylrhodamine methyl ester (TMRM, 50 nM) to determine the mitochondrial membrane potential. After acquisition of images by fluorescence microscopy, the uncoupling agent FCCP (4 μM) was added to collapse the mitochondrial potential. The difference of the fluorescence intensity obtained before and after FCCP is shown in the graph and reflects the mitochondrial membrane potential. The data are expressed as fluorescence intensity and are normalised with respect to unstimulated cells (unst). The values are the average of at least 3 independent experiments±SEM. […]
The mitochondrial membrane potential was measured on the basis of the accumulation of tetramethylrhodamine methyl ester (TMRM, Molecular Probes) as described in Sorato, E., Menazza, S., Zulian, A., Sabatelli, P., Gualandi, F., Merlini, L., Bonaldo, P., Canton, M., Bernardi, P., and Di Lisa, F. (2014). […] The medium was then substituted with a medium devoid of serum integrated with TMM 25 nM for 30 minutes, and the cell fluorescence images were acquired using a Leica microscope (Wetzlar, Germany) DMI6000B. The data were acquired and analysed by means of Metafluor software (Universal Imaging). An excitation of 540±20 nm and a 590 nm longpass emission filter were used to reveal the fluorescence. […]

NF-κB = conditions: murine macrophages
Description: The values are the average of at least 3 independent experiments±SEM.

mice treated with LPS = conditions: rasagiline 0.5 mg/kg per os 12 h before LPS 10 mg/kg ip, 8 h
Description: In parallel, a group of mice (ct) were treated with only the vehicle (PBS, ip). At the end, a sample of blood was taken and the plasma levels of IL-1β0 were quantified by means of Elisa test. […] The values are the average of at least 3 independent experiments±SEM.
In parallel, a group of mice (ct) were treated with only the vehicle (PBS, ip). At the end, peritoneal washing with 2 ml of PBS was performed, as well as a leukocyte count.
Adult mice were treated with a single injection of LPS (10 mg/kg ip) for 8 h or of vehicle (PBS, ip). […] At the end, the animals were sacrificed and samples were taken of blood and the peritoneal exudate.
Male mice (strain C57BL/6J) of age 8-10 weeks and weight approximately 30 gr. were subjected to an intraperitoneal injection with LPS (10 mg/kg, L4130, Sigma-Aldrich) or vehicle (saline solution, called PBS). […] The treated animals were sacrificed 8 hours after the injection (considered as time 0), by means of cervical dislocation. Immediately after the sacrifice an intraperitoneal washing was performed with 2 ml of PBS and any exudate present was collected to determine the leukocyte count. In addition, samples of blood were taken and frozen after obtaining the plasma for analysis of IL-1β by means of ELISA test.

Row | SMILES | activity of the inflammasome (% cells positive for caspase-1 and MHCII) (caspase-1) | release of IL-1β in supernatants (IL-1β [1]) | selectivity of inhibition for MAOA / MAOB isoforms (MAOA, MAOB) | release of IL-1β in supernatants (IL-1β [2]) | intracellular concentration of dopamine (MAO) | production of ROS (human macrophages [3]) | mitochondrial depolarisation (mitochondrial membrane potential, TMRM) (human macrophages [4]) | activation of NF-κB (NF-κB) | protein levels of pro-IL-1β (NF-κB) | concentration of leucocytes in the peritoneal liquid (mice treated with LPS) | plasma levels of IL-1β (mice treated with LPS)
1 | CC(=O)N[C@@H](CS)C(=O)O [N-acetylcysteine] | effect is similar | effect is similar |  |  |  |  |  |  |  |  | 
2 | NNCCc1ccccc1 [phenelzine] |  |  | lack selectivity |  |  |  |  |  |  |  | 
3 | C#CCN[C@@H]1CCc2ccccc21 [rasagiline] | significantly inhibit the activity of the inflammasome | significantly inhibit the release of IL-1β | MAOB are selectively inhibited | significantly inhibit the release of IL-1β | increases subsequently | reduces the production of ROS | significantly reduce the mitochondrial depolarisation | reduce the activation of NF-κB | reduce | clear reduction of the concentration of leucocytes | drastically reduces the increase of plasma levels of IL-1β
4 | N[C@@H]1C[C@H]1c1ccccc1 (racemic) [tranylcypromine] |  |  | lack selectivity |  |  |  |  |  |  |  | 
5 | C#CCN(C)Cc1ccccc1 [pargyline] | significantly inhibit the activity of the inflammasome | significantly inhibit the release of IL-1β | able to inhibit both the isoforms | significantly inhibit the release of IL-1β | increases subsequently |  |  |  |  |  | 
